Experiments:
human Kv1.4 channel = format: cell-based
human Kv1.5 channel = format: cell-based

CSCC[C@H](NC(=O)[C@@H]1CCCN1C(=O)CNC(=O)[C@H](CO)NC(=O)[C@@H](NC(=O)[C@H](C)N)[C@@H](C)O)C(=O)NCC(=O)N[C@@H](Cc1c[nH]c2ccccc12)C(=O)N[C@@H](CC(C)C)C(=O)N1CCC[C@H]1C(=O)N[C@H](C(=O)N[C@@H](Cc1ccccc1)C(=O)N[C@@H](Cc1ccc(O)cc1)C(=O)N[C@@H](CCCNC(=N)N)C(=O)N[C@@H](Cc1ccccc1)C(N)=O)C(C)C [CNF-Sr3, Conorfamide-Sr3]
Decrease of current, Kv1.4 (human Kv1.4 channel): less than 5% | Decrease of current, Kv1.5 (human Kv1.5 channel): less than 5%

Source: paper PMC7459591 (Marine Drugs, 2020)
